Tests used:
[1] = target: T1, Xanthine dehydrogenase/oxidase (Bos taurus, UniProt P80457); experiment: Inhibition of cow milk xanthine oxidase
[2] = target: T1, Xanthine dehydrogenase/oxidase; experiment: Inhibition of cow milk xanthine oxidase at 50 ug/mL; conditions: cattle

T1 sequence (P80457 whole entry): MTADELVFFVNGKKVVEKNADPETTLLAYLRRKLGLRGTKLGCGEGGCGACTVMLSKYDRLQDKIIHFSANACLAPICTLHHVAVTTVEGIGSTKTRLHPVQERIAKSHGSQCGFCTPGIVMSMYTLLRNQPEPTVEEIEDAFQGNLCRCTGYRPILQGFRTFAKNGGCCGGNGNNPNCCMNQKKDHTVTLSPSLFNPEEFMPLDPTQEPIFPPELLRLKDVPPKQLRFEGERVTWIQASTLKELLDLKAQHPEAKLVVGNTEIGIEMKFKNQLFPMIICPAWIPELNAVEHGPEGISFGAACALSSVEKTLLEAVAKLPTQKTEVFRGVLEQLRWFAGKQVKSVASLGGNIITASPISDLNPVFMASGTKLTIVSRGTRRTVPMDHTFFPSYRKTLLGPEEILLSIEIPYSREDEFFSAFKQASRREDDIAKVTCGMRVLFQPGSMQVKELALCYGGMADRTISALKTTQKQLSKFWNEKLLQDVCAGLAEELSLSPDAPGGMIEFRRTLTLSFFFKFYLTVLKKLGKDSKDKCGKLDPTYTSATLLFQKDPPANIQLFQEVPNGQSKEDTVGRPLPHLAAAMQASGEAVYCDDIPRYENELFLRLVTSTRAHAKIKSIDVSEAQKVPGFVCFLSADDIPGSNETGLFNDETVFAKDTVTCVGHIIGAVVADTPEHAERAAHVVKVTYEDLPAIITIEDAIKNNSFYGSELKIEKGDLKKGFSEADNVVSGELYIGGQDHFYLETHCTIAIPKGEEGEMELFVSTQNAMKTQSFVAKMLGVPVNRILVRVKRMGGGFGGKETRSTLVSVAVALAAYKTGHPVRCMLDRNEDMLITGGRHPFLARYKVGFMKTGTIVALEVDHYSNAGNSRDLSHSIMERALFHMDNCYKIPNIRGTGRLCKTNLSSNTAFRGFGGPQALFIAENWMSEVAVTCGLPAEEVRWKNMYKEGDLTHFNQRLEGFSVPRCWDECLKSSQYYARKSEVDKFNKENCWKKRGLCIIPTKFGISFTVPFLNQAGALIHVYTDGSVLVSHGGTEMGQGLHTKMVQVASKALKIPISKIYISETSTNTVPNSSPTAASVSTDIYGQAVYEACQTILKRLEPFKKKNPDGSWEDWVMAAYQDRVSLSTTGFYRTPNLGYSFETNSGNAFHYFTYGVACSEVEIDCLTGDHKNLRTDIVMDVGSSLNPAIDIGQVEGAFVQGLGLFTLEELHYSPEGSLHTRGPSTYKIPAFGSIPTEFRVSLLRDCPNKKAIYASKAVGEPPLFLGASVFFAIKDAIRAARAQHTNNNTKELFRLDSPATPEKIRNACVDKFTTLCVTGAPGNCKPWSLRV

Row | Structure (SMILES) | IC50 [1] [µM] | inhibition at 50 µg/mL [2] [%]
1 | O=c1cc(-c2ccc(O)c(-c3c(O)cc(O)c4c(=O)cc(-c5ccc(O)cc5)oc34)c2)oc2cc(O)cc(O)c12 [AMENTOFLAVONE] | 35.3 | 100
2 | COc1c(-c2ccc(O)c(O)c2)oc2cc(O)cc(O)c2c1=O [3-O-METHYLQUERCETIN] | 31.6 | 98.5
3 | O=c1cc(-c2ccccc2)oc2cc(O)c(O)c(O)c12 [BAICALEIN] | 3.3 | 85.5
4 | O=C1CC(c2ccc(O)c(O)c2)Oc2c1c(O)cc(O)c2[C@@H]1C(=O)c2c(O)cc(O)cc2O[C@H]1c1ccc(O)cc1 (some centres undefined) [FUKUGETIN] | 22.3 | 97.2
5 | O=c1cc(-c2ccc(O)cc2)oc2cc(O)c(O)c(O)c12 [SCUTELLAREIN] | 12.6 | 67.3
6 | COc1cc(-c2oc3cc(O)cc(O)c3c(=O)c2OS(=O)(=O)O)ccc1O [PERSICARIN] | 34.6 | 90.3
7 | COc1c2c(cc3occ(-c4ccc(O)cc4)c(=O)c13)OCO2 [IRISOLONE] |  | 0
8 | COc1ccc(-c2cc(=O)c3c(O)cc(O)cc3o2)cc1 [ACACETIN] | 14.1 | 55.7
9 | COc1c(O)cc2oc(-c3ccc(O)c(O)c3)cc(=O)c2c1O [EUPAFOLIN] |  | 49
10 | O=C1c2c(O)cc(O)cc2O[C@H](c2ccc(O)cc2)[C@H]1O [DIHYDROKAEMPFEROL] | 93.8 | 66.9
11 | COc1ccc(-c2cc(=O)c3c(O)cc(O)c(-c4cc(-c5cc(=O)c6c(O)cc(OC)cc6o5)ccc4OC)c3o2)cc1 [SCIADOPITISIN] |  | 0
12 | COc1cc(-c2oc3cc(O)cc(O)c3c(=O)c2O[C@@H]2O[C@H](CO[C@@H]3O[C@@H](C)[C@H](O)[C@@H](O)[C@H]3O)[C@@H](O)[C@H](O)[C@H]2O)ccc1O [NARCISSIN] |  | 22.2
13 | COc1c(O)cc2oc(-c3ccc(O)cc3)c(OC)c(=O)c2c1O [3,6-DIMETHOXY KAEMPFEROL] | 0.03 | 95
14 | COc1cc2oc(-c3ccc(O)c(O)c3)cc(=O)c2c(O)c1OC [CIRSILIOL] |  | 0.5
15 | O=c1c(O)c(-c2ccc(O)cc2)oc2cc(O[C@@H]3O[C@H](CO)[C@@H](O)[C@H](O)[C@H]3O)cc(O)c12 |  | 0
16 | COc1cc(-c2coc3cc4c(c(OC)c3c2=O)OCO4)cc(OC)c1OC [IRISFLORENTIN] |  | 0
17 | CC(=O)Oc1cc(OC(C)=O)c2c(=O)cc(-c3ccc(OC(C)=O)c(OC(C)=O)c3)oc2c1 |  | 47.7
18 | COc1c(O)cc(O)c2c(=O)cc(-c3ccccc3)oc12 [WOGONIN] | 176 | 50.2
19 | O=c1c(-c2ccc(O)cc2)coc2cc(O)ccc12 [DAIDZEIN] |  | 0
20 | O=c1c(O)c(-c2cc(O)c(O)c(O)c2)oc2cc(O)ccc12 [ROBINETIN] |  | 82.9
21 | O=C(O[C@H]1[C@H](Oc2c(-c3ccc(O)c(O)c3)oc3cc(O)cc(O)c3c2=O)O[C@H](CO)[C@@H](O)[C@@H]1O)c1cc(O)c(O)c(O)c1 |  | 21
22 | O=C1c2c(O)cc(O)cc2O[C@H](c2ccc(O)c(O)c2)[C@H]1O [(+)-TAXIFOLIN] |  | 17.8

Now from value to molecule:

Row | IC50 [1] [µM] | inhibition at 50 µg/mL [2] [%] | Structure (SMILES)
23 | 35.6 | 69.1 | COc1c(-c2ccc(O[C@@H]3O[C@H](CO)[C@@H](O)[C@H](O)[C@H]3O)c(O)c2)oc2cc(O)cc(O)c2c1=O
24 | 75.9 | 67.2 | O=c1cc(-c2ccc(O)c(O)c2)oc2cc(O[C@@H]3O[C@H](CO)[C@@H](O)[C@H](O)[C@H]3O)cc(O)c12 (single isomer, unassigned) [GALUTEOLIN]
25 |  | 20.1 | C[C@@H]1O[C@@H](O[C@H]2[C@H](Oc3cc(O)c4c(=O)cc(-c5ccc(O)c(O)c5)oc4c3)O[C@H](CO)[C@@H](O)[C@@H]2O)[C@H](O)[C@H](O)[C@H]1O [LONICERIN]
26 |  | 33.1 | O=c1c(O[C@@H]2OC[C@@H](O)[C@H](O)[C@H]2O)c(-c2ccc(O)c(O)c2)oc2cc(O)cc(O)c12 [REYNOUTRIN]
27 |  | 0 | COc1ccc(-c2cc(=O)c3c(O)cc(O[C@@H]4O[C@H](CO)[C@@H](O)[C@H](O)[C@H]4O)cc3o2)cc1 [TILIANINE]
28 |  | 0 | COc1cc2oc(-c3ccc(O[C@@H]4O[C@H](CO)[C@@H](O)[C@H](O)[C@H]4O)c(O)c3)cc(=O)c2c(O)c1OC
29 |  | 0 | O=c1cc(-c2ccc(O)c(O)c2)oc2cc(O[C@@H]3O[C@H](CO)[C@@H](O)[C@H](O)[C@H]3O)c([C@@H]3O[C@H](CO)[C@@H](O)[C@H](O)[C@H]3O)c(O)c12
30 |  | 18 | O=C1C[C@@H](c2ccc(O[C@@H]3O[C@H](CO)[C@@H](O)[C@H](O)[C@H]3O)cc2)Oc2cc(O)ccc21 [LIQUIRITIN]
31 |  | 0 | COc1c(O[C@@H]2O[C@H](CO)[C@@H](O)[C@H](O)[C@H]2O)cc2occ(-c3ccc(O)cc3)c(=O)c2c1O [TECTORIDIN]
32 |  | 0 | COc1cc(-c2cc(=O)c3c(O)c(OC)c(OC)cc3o2)ccc1O[C@@H]1O[C@H](CO)[C@@H](O)[C@H](O)[C@H]1O
33 |  | 27.2 | O=C1c2ccc(O)cc2O[C@H](c2ccc(O)c(O)c2)[C@H]1O [FUSTIN]
34 |  | 13.9 | O=c1cc(-c2ccc(O)cc2)oc2cc(O[C@@H]3O[C@H](CO)[C@@H](O)[C@H](O)[C@H]3O)cc(O)c12 [APIGETRIN]
35 |  | 0 | C[C@@H]1O[C@@H](O[C@H]2C(=O)c3c(O)cc(O)cc3O[C@@H]2c2ccc(O)c(O)c2)[C@H](O)[C@H](O)[C@H]1O [ASTILBIN]
36 |  | 100 | O=C1C[C@@H](c2ccc(O)cc2)Oc2cc(O)ccc21 [LIQUIRTIGENIN]
37 |  | 0 | COc1ccc(-c2cc(=O)c3c(O)cc(O[C@@H]4O[C@H](CO[C@@H]5O[C@@H](C)[C@H](O)[C@@H](O)[C@H]5O)[C@@H](O)[C@H](O)[C@H]4O)cc3o2)cc1O [DIOSMIN]

— ChEMBL document CHEMBL1150752, “Inhibition of cow's milk xanthine oxidase by flavonoids” (J Nat Prod, 1988)
